Measurements published in ChEMBL document CHEMBL1140476 (Bioorg Med Chem, 2007).
pIC50: −log10 of the molar value. Activity calls are given as the source filed them. The calls are words filed in the database; no cut-off is given here.

What was measured:
[1] = Inhibition of Escherichia coli DnaB helicase in presence of 150 uM ATP
Escherichia coli [2] = assay: Inhibition of Escherichia coli DnaB helicase-stimulated primer synthesis
Escherichia coli [3] = assay: Inhibition of Escherichia coli DnaB helicase at 60 uM
Escherichia coli [4] = assay: Inhibition of Escherichia coli DnaB helicase at 12 uM
[5] = Inhibition of Escherichia coli DnaB helicase in presence of 1 mM ATP
Escherichia coli [6] = assay: Inhibition of Escherichia coli DnaB helicase at 6 uM
Escherichia coli [7] = assay: Inhibition of Escherichia coli DnaB helicase at 30 uM

- pIC50 [1]: 4.99
- Activity (Escherichia coli [2]): Active
- Km (Escherichia coli [3]): 4.5 µM
- Vmax (Escherichia coli [3]): 0.35 µM/s
- Km (Escherichia coli [4]): 2.9 µM
- Vmax (Escherichia coli [4]): 1.06 µM/s
- pIC50 [5]: 4.95
- Km (Escherichia coli [6]): 17 µM
- Vmax (Escherichia coli [6]): 1.64 µM/s
- Km (Escherichia coli [7]): 2.3 µM
- Vmax (Escherichia coli [7]): 0.61 µM/s
Compound: O=c1c(O)c(-c2cc(O)c(O)c(O)c2)oc2cc(O)cc(O)c12 [MYRICETIN]
